Read-outs that look alike come from different tables or passages of the source.
Columns and labels:
[1] = molecular target: T1, human 15-PGDH (Homo sapiens, UniProt P15428); test: Evaluation of 15-PGDH inhibitory activity (fluorescence enzyme assay, NAD+/PGE2); format: biochemical; settings: human 15-PGDH enzyme, fluorescence Vmax
T1 construct: purchased R&D System 5660-DH
T1 sequence (P15428 1-266): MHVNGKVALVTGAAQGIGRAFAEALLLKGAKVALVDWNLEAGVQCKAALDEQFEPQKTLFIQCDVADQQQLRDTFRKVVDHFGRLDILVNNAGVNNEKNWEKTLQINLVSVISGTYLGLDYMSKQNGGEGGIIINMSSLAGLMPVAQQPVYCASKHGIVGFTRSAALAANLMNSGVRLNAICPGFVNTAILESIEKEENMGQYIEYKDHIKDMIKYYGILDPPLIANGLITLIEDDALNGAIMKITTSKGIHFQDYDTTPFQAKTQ
Experimental: 15-PGDH inhibition activity of Example compounds was measured as follows. 6.7 ng of human 15-PGDH (R&D System# 5660-DH) enzyme (10 µL) was added to a black 96 well plate, 60 µL of buffer (50 mM Tris-HCl, pH 7.5, 0.01% Tween 20) was added, and 10 µL of 200 µM β-Nicotinamide adenine dinucleotide sodium salt (Sigma, Cat# N0632-5G) was added. 10 µL of (10x) compound solution in DMSO was added and reacted for 10 minutes at room temperature.

[2] = tested on: A549 cells; test: Measurement of PGE2-increasing activity in A549 cells (IL-1β stimulated, PGE2 quantified in supernatant); format: cell-based; settings: Homo sapiens, read-out: Increased PGE2 production in A549 cells
Method in brief: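 A549 cells grown 24 h in F12K with 10% FBS, then switched to serum-free medium with or without IL-1β and compound (0.1% DMSO final). After 24 h at 37 °C, 5% CO2, supernatant PGE2 quantified by immunoassay.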

[3] = 24 h, concentration of 1 µM of each compound, IL-1β treated A549 cells

Compound | IC50 [1] [nM] | fold induction at 1 µM [2, 3] | fold induction at 1 µM ([2]; A549, 24 h)
O=C(Cc1ccc(C(F)(F)F)nc1)Nc1ccc(-c2cccc3c(C(=O)N4CCCCC4)cnn23)cn1 [Example 408, N-[5-[3-(piperidine-1-carbonyl)pyrazolo[1,5-a]pyridin-7-yl]-2-pyridyl]-2-[6-(trifluoromethyl)-3-pyridyl]acetamide] | ≤ 100 | > 1.5 | –
CC(C)N1CCN(C(=O)c2ccc(-c3cccc4c(C(=O)N5CCCCC5)cnn34)cn2)CC1 [Example 84, (4-isopropylpiperazin-1-yl)(5-(3-(piperidine-1-carbonyl)pyrazolo[1,5-a]pyridin-7-yl)pyridin-2-yl)methanone] | ≤ 100 | > 1.5 | –
O=C(c1cnn2c(-c3ccc(-c4n[nH]c(=S)o4)nc3)cccc12)N1CCCCC1 [Example 365, 1-piperidyl-[7-[6-(2-thioxo-3H-1,3,4-oxadiazol-5-yl)-3-pyridyl]pyrazolo[1,5-a]pyridin-3-yl]methanone] | ≤ 100 | > 1.5 | –
Cn1nccc1-c1cc(-c2cccc3c(C(=O)N4CCCCC4)cnn23)cc(N2CC(O)C2)n1 [Example 357, (7-(2-(3-hydroxyazetidin-1-yl)-6-(1-methyl-1H-pyrazol-5-yl)pyridin-4-yl)pyrazolo[1,5-a]pyridin-3-yl)(piperidin-1-yl)methanone] | ≤ 100 | > 1.5 | –
O=C(c1cnn2c(-c3ccccc3)cccc12)N1C2CCC1CC2 [Example 229, (7-azabicyclo[2.2.1]heptan-7-yl)(7-phenylpyrazolo[1,5-a]pyridin-3-yl)methanone] | ≤ 100 | – | > 1.5
CN(C)CCNC(=O)c1cccc(-c2cccc3c(C(=O)N4CCCCC4)cnn23)c1 [Example 31, N-(2-(dimethylamino)ethyl)-3-(3-(piperidine-1-carbonyl)pyrazolo[1,5-a]pyridin-7-yl)benzamide] | ≤ 100 | < 1.5 | –
O=C(c1cnn2c(-c3ccc(-c4cn[nH]c4)cc3)cccc12)N1CCCCC1 [Example 346, 1-piperidyl-[7-[4-(1H-pyrazol-4-yl)phenyl]pyrazolo[1,5-a]pyridin-3-yl]methanone] | ≤ 100 | > 1.5 | –
O=C(c1cnn2c(Nc3cc(=O)[nH]cn3)cccc12)N1CCCCC1 [Example 235, 4-[[3-(piperidine-1-carbonyl)pyrazolo[1,5-a]pyridin-7-yl]amino]-1H-pyrimidin-6-one] | ≤ 100 | > 1.5 | –
O=C(c1cnn2c(-c3ccc(-c4noc(=O)[nH]4)cc3F)cccc12)N1CCCCC1 [Example 295, 3-[3-fluoro-4-[3-(piperidine-1-carbonyl)pyrazolo[1,5-a]pyridin-7-yl]phenyl]-4H-1,2,4-oxadiazol-5-one] | ≤ 100 | > 1.5 | –
O=C(c1cnn2c(-c3cncc([N+](=O)[O-])c3)cccc12)N1CCCCC1 [Example 318, (7-(5-nitropyridin-3-yl)pyrazolo[1,5-a]pyridin-3-yl)(piperidin-1-yl)methanone] | ≤ 100 | > 1.5 | –
O=C(c1cnn2c(-c3cnn(Cc4ncon4)c3)cccc12)N1CCCCC1 [Example 395, (7-(1-((1,2,4-oxadiazol-3-yl)methyl)-1H-pyrazol-4-yl)pyrazolo[1,5-a]pyridin-3-yl)(piperidin-1-yl)methanone] | ≤ 100 | > 1.5 | –
CN1CCc2ccc(-c3cccc4c(C(=O)N5CCCCC5)cnn34)cc2C1=O [Example 132, 2-methyl-7-(3-(piperidine-1-carbonyl)pyrazolo[1,5-a]pyridin-7-yl)-3,4-dihydroisoquinolin-1(2H)-one] | ≤ 100 | > 1.5 | –
O=C(NCC1CC1)c1cncc(-c2cccc3c(C(=O)N4CCCCC4)cnn23)c1 [Example 46, N-(cyclopropylmethyl)-5-(3-(piperidine-1-carbonyl)pyrazolo[1,5-a]pyridin-7-yl)nicotinamide] | ≤ 100 | > 1.5 | –
O=C(Cc1cccnc1)Nc1ncc(-c2cccc3c(C(=O)N4CCCCC4)cnn23)cc1Cl [Example 311, N-(3-chloro-5-(3-(piperidine-1-carbonyl)pyrazolo[1,5-a]pyridin-7-yl)pyridin-2-yl)-2-(pyridin-3-yl)acetamide] | ≤ 100 | > 1.5 | –
O=C(NCc1ccon1)c1ccc(-c2cccc3c(C(=O)N4CCCCC4)cnn23)cc1 [Example 73, N-(isoxazol-3-ylmethyl)-4-(3-(piperidine-1-carbonyl)pyrazolo[1,5-a]pyridin-7-yl)benzamide] | ≤ 100 | > 1.5 | –
